Columns and labels:
GHSR1a [1] = target: T1, GHSR1a (Homo sapiens, UniProt Q92847); assay: Calcium FLIPR assay, GHSR-1a agonism; format: cell-based; set-up: Emax: unit not given here; conditions: HEK293/GHSR1a cells
T1 construct: expressed in transfected cells; host or cells: HEK293
In short: (§1)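 Relative fluorescence read-out (FLIPR) of intracellular calcium in HEK293/GHSR1a cells. For antagonist mode, compound and 10 nM ghrelin were co-added at t=20 sec, and inhibition of the ghrelin response over 2 minutes gave IC50. Agonist mode: compound alone at t=20 sec, response tracked 2 minutes; EC50 from dose-response.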

GHSR1a [2] = target: T1, GHSR1a; assay: Calcium FLIPR assay, GHSR-1a antagonism (reduction of ghrelin response); format: cell-based; conditions: HEK293/GHSR1a cells, ghrelin 10 nM
In short: as §1

C57BL/6J mice = assay: Food intake test in mouse (GHSR1a antagonists); format: in vivo; conditions: for inhibition in vivo at 10 mg/kg / inhibition in vivo at 30 mg/kg: Mus musculus
Method: Male C57BL/6J mice, 18-22 g body weight, were fasted overnight (16 h before compound administration) and placed in a regular light dark cycle (6:00-18:00 light/18:00-6:00 dark). After 1 wk acclimation, animals were sorted into two groups (n=6 each, 2 per cage) based on body weight. Animals in group one were be treated with vehicle and animals in group 2 were treated with the test agent (n=6 for each group). The cumulative food intake was evaluated at 1, 2, 4, 8 and 24 hrs after drug or vehicle treatment. Food intake was measured by subtracting uneaten food from the initial premeasured food.

[3] = Metabolic Stability (H = Human); format: in vitro ADME
[4] = Metabolic Stability (M = Mouse); format: in vitro ADME
[5] = PO 10 mg/kg + ANA (ANAM) 30 mg/kg mice

T1 sequence (Q92847 whole entry): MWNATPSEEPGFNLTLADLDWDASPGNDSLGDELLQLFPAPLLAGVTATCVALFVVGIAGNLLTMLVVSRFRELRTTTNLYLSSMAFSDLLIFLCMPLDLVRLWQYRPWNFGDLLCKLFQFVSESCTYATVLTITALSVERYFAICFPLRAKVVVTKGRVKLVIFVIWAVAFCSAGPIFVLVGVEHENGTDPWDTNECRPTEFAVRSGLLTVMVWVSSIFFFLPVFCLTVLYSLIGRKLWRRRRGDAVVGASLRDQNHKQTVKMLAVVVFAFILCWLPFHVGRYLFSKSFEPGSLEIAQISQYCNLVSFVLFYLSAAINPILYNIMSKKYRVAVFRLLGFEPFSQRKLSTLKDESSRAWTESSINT

EC50 (GHSR1a [1]) [nM] | IC50 (GHSR1a [2]) [nM] | Metabolic Stability H [3] | Metabolic Stability M [4] | Compound | inhibition in vivo at 10 mg/kg (C57BL/6J mice; ip, 1 h, i.p. 10 mg/kg) [%] | Mouse Food Intake, result in words (C57BL/6J mice; PO, dose not given) | further results
64 | 18 | High H High M | High H High M | COc1ncc(-c2ccc(C(C)NC(=O)N(C)C3CCN(C)CC3)c(Cl)c2Cl)cn1 (stereo not shown) [Compound H0649, 3-(1-(2,3-dichloro-4-(2-methoxypyrimidin-5-yl)phenyl)ethyl)-1-methyl-1-(1-methylpiperidin-4-yl)urea] | 48 | – | Emax (GHSR1a [1]): 1400; inhibition in vivo at 10 mg/kg (C57BL/6J mice; ip, 2 h, i.p. 10 mg/kg): 48%
> 30000 | 12 | Medium H Medium M | Medium H Medium M | CC(=O)c1ccc(-c2ccc(C(C)NC(=O)N(C)C3CCN(C)CC3)c(Cl)c2Cl)s1 (stereo not shown) [Compound H0655, 3-(1-(4-(5-acetylthiophen-2-yl)-2,3-dichlorophenyl)ethyl)-1-methyl-1-(1-methylpiperidin-4-yl)urea] | 70 | – | –
3 | < 1 | High H High M | High H High M | CC(NC(=O)N(O)C1CCN(C)CC1)c1ccc(-c2cncc(C#N)c2)c(Cl)c1Cl (stereo not shown) [Compound H0667, 3-(1-(2,3-dichloro-4-(5-cyanopyridin-3-yl)phenyl)ethyl)-1-hydroxy-1-(1-methylpiperidin-4-yl)urea] | 76 | – | Emax (GHSR1a [1]): 4887
> 30000 | 14 | Medium | High | CN1CCC(N(C)C(=O)NC(c2ccc(-c3cncnc3)c(Cl)c2Cl)C(F)(F)F)CC1 (stereo not shown) [Compound H0686, 3-(1-(2,3-dichloro-4-(pyrimidin-5-yl)phenyl)-2,2,2-trifluoroethyl)-1-methyl-1-(1-methylpiperidin-4-yl)urea] | – | NSE | inhibition in vivo at 10 mg/kg (C57BL/6J mice; ip, 2 h, i.p. 10 mg/kg): 61%; inhibition in vivo at 10 mg/kg (C57BL/6J mice; ip, 4 h, i.p. 10 mg/kg): 61%
> 30000 | 5 | High H High M | High H High M | CC(NC(=O)N(C)C1CCN(C)CC1)c1ccc(-c2ccc(C(N)=O)s2)c(Cl)c1Cl (stereo not shown) [Compound H0691, 5-(2,3-dichloro-4-(1-(3-methyl-3-(1-methylpiperidin-4-yl)ureido)ethyl)phenyl)thiophene-2-carboxamide] | – | not active | inhibition in vivo at 10 mg/kg (C57BL/6J mice; ip, 2 h, i.p. 10 mg/kg): 62%
> 30000 | 7 | High H High M | High H High M | CC(NC(=O)N(C)C1CCN(C)CC1)c1ccc(-c2cnccn2)c(Cl)c1Cl (stereo not shown) [Compound H0700, 3-(1-(2,3-dichloro-4-(pyrazin-2-yl)phenyl)ethyl)-1-methyl-1-(1-methylpiperidin-4-yl)urea] | – | – | inhibition in vivo at 10 mg/kg (C57BL/6J mice; 1 h, Fed mice, 10 mg/kg): 71%; inhibition in vivo at 10 mg/kg (C57BL/6J mice; ip, 2 h, i.p. 10 mg/kg): 41%
> 30000 | 19 | High | Medium | CC(NC(=O)N(C)C1CCN(C)CC1)c1ccc(-c2cncc(N)c2)c(Cl)c1Cl (stereo not shown) [Compound H0704, 3-(1-(4-(5-aminopyridin-3-yl)-2,3-dichlorophenyl)ethyl)-1-methyl-1-(1-methylpiperidin-4-yl)urea] | – | – | inhibition in vivo at 10 mg/kg (C57BL/6J mice; ip, 2 h, i.p. 10 mg/kg): 32%
> 30000 | 13 | High H High M | High H High M | CN1CCC(N(C)C(=O)NC(CC2CC2)c2ccc(-c3cnccn3)c(Cl)c2Cl)CC1 (stereo not shown) [Compound H0722, 3-(2-cyclopropyl-1-(2,3-dichloro-4-(pyrazin-2-yl)phenyl)ethyl)-1-methyl-1-(1-methylpiperidin-4-yl)urea] | 90 | – | Mouse Food Intake, result in words (C57BL/6J mice; PO 30 mg/kg): NSE
> 30000 | 13 | High H High M | High H High M | CC(NC(=O)N(C)C1CCN(C)CC1)c1ccc(C#Cc2cccs2)c(Cl)c1Cl (stereo not shown) [Compound H0737, 3-(1-(2,3-dichloro-4-(thiophen-2-ylethynyl)phenyl)ethyl)-1-methyl-1-(1-methylpiperidin-4-yl)urea] | 75 | NSE | –
> 30000 | 11 | High H High M | High H High M | CC(NC(=O)N(C)C1CCN(C)CC1)c1ccc(C#Cc2nccs2)c(Cl)c1Cl (stereo not shown) [Compound H0754, 3-(1-(2,3-dichloro-4-(thiazol-2-ylethynyl)phenyl)ethyl)-1-methyl-1-(1-methylpiperidin-4-yl)urea] | 74 | no effect | Mouse Food Intake, result in words (C57BL/6J mice; PO + ANA (ANAM), mice, dose not given): no effect
> 30000 | 7 | High H High M | High H High M | CC(NC(=O)N(C)C1CCN(C)CC1)c1ccc(C#Cc2ccsc2)c(Cl)c1Cl (stereo not shown) [Compound H0759, 3-(1-(2,3-dichloro-4-(thiophen-3-ylethynyl)phenyl)ethyl)-1-methyl-1-(1-methylpiperidin-4-yl)urea] | 85 | no effect | –
3 | 0.2 | High H High M | High H High M | CN1CCC(N(O)C(=O)NC(CC2CC2)c2ccc(-c3cnccn3)c(Cl)c2Cl)CC1 (stereo not shown) [Compound H0761, 3-(2-cyclopropyl-1-(2,3-dichloro-4-(pyrazin-2-yl)phenyl)ethyl)-1-hydroxy-1-(1-methylpiperidin-4-yl)urea] | 63 | NSE | Emax (GHSR1a [1]): 2907; Mouse Food Intake, result in words (C57BL/6J mice; PO, fasted mice, dose not given): No activity; FI increase (C57BL/6J mice; PO, fed mice): 215%; Mouse Food Intake, result in words (C57BL/6J mice; fed mice, route not clear): No activity
14 | 10 | High H High M | High H High M | CC(NC(=O)N(C)C1CCN(C)CC1)c1ccc(C#CC2CC2)c(Cl)c1Cl (stereo not shown) [Compound H0764, 3-(1-(2,3-dichloro-4-(cyclopropylethynyl)phenyl)ethyl)-1-methyl-1-(1-methylpiperidin-4-yl)urea] | 91 | – | Emax (GHSR1a [1]): 1352; inhibition in vivo at 30 mg/kg (C57BL/6J mice; po, 2 h, PO 30 mg/kg): 70%; inhibition in vivo at 30 mg/kg (C57BL/6J mice; sc, 1 h, SC 30 mg/kg): 53%
> 30000 | 37 | High H High M | High H High M | CC(NC(=O)N(C)C1CCN(C)CC1)c1ccc(/C=C/c2cccs2)c(Cl)c1Cl (stereo not shown) [Compound H0767, (E)-3-(1-(2,3-dichloro-4-(2-(thiophen-2-yl)vinyl)phenyl)ethyl)-1-methyl-1-(1-methylpiperidin-4-yl)urea] | 88 | NSE | –
> 30000 | 3 | High | Medium | CC(NC(=O)N(C)[C@@H]1CCN(C)CC1(C)C)c1ccc(-c2cnccn2)c(Cl)c1Cl (stereo partly drawn) [Compound H0824, 2-(1-(2,3-dichloro-4-(pyrazin-2-yl)phenyl)ethyl)-1-methyl-1-((R)-1,3,3-trimethylpiperidin-4-yl)urea] | – | – | Mouse Food Intake, result in words (C57BL/6J mice; PO 30 mg/kg + ANA mice): PO 30 mg/kg + ANA mice: NSE
> 30000 | 3 | High H High M | High H High M | CCC(NC(=O)N(C)C1CCN(C)CC1)c1ccc(-c2cnccn2)c(Cl)c1Cl (stereo not shown) [Compound H0829, 3-(1-(2,3-dichloro-4-(pyrazin-2-yl)phenyl)propyl)-1-methyl-1-(1-methylpiperidin-4-yl)urea] | – | – | Mouse Food Intake, result in words (C57BL/6J mice; [5]): PO 10 mg/kg + ANA 30 mg/kg mice: NSE
> 30000 | 432 | Medium | High | C[C@@H](NC(=O)N(C)C1CCN(C)CC1)c1ccc(-c2cncc(F)n2)c(Cl)c1Cl [Compound H0848, (R)-3-(1-(2,3-dichloro-4-(6-fluoropyrazin-2-yl)phenyl)ethyl)-1-methyl-1-(1-methylpiperidin-4-yl)urea] | – | – | Mouse Food Intake, result in words (C57BL/6J mice; [5]): PO 10 mg/kg + ANA 30 mg/kg mice: NSE

— patent US9546157B2, “Asymmetric piperidinyl-substituted ureas as medicines” (Helsinn Healthcare SA, priority 2014, dated 2017)
